For orientation: IC50 means the concentration that gives 50% inhibition.

Series [1] deals with FAP. Also noted: method as in PMID 20718420. The conditions noted are these: substituted 4-carboxymethylpyroglutamic acid scaffold; read-out: IC50 (FAP-inhibitory activity); cited from earlier work.
In series [2] the test system is FAP. The arrangement: method as in PMID 24617858. The conditions noted are these: cited from earlier work; for IC50: (4-quinolinoyl)-glycyl-2-cyanopyrrolidine series, read-out: IC50 (FAP-inhibitory potency).
The target of series [3] is T1, recombinant human FAP (Homo sapiens, UniProt Q12884).
T1 construct: purchased Biolegend
T1 sequence (Q12884 1-760): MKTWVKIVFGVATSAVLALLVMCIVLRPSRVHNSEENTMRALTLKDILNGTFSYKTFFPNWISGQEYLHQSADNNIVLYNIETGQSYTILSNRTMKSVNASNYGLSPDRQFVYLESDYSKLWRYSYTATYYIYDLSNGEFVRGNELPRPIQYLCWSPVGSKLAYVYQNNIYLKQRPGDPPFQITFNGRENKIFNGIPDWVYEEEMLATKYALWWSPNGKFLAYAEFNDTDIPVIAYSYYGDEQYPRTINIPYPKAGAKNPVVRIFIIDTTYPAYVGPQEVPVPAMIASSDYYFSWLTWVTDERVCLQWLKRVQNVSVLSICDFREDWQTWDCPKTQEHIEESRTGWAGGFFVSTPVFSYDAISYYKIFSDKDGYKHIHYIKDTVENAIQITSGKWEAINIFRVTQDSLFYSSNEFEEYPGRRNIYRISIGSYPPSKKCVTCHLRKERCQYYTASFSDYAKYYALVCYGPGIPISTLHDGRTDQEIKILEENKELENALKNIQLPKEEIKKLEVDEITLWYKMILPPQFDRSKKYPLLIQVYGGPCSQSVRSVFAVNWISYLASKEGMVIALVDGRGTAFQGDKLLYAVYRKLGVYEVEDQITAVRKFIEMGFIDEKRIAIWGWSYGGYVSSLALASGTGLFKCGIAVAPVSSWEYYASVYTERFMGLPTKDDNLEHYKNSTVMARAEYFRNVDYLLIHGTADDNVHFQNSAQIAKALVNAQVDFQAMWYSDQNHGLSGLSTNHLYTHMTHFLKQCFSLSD
Kind of series: In vitro fluorescence-based FAP enzymatic inhibition assay (Suc-Gly-Pro-AMC substrate). The class given is biochemical. The conditions noted are these: for IC50: recombinant human FAP, Suc-Gly-Pro-AMC, n = 3. The protocol: The half-maximal inhibitory concentration (IC50) values of the FAP-targeted ligands were measured using an in vitro enzymatic assay. Briefly, recombinant human FAP (Biolegend, San Diego, CA, USA; 0.2 µg/mL, 50 µL) was added into a Costar clear bottom 96-well plate. PBS and varied concentrations (25 pM to 1 µM) of ^natGa-complexed ligands were added to each well (in duplicate) containing the recombinant human FAP. After being incubated for 30 min at 37 °C, Suc-Gly-Pro-AMC (Bachem, Bubendorf, Switzerland; 20 mM, 50 µL) was added to each well. The velocities of AMC release were measured kinetically at λex = 380 nm, λem = 460 nm at 60 min at 37 °C using a FlexStation 3 Multi-Mode Microplate Reader.

For series [4], the system named is HEK293T:hFAP tumor xenografts. As to the kind of experiment: PET/CT imaging in HEK293T:hFAP tumor-bearing mice. Type of series: in vivo. The conditions noted are these: for Visualization of tumor xenografts in PET/CT images / Excretion pathway: 1 h pi; for Excretion pathway: PET/CT. The protocol:
(§1) Imaging and biodistribution studies were performed using immunodeficient male NRG (NOD.Cg-Rag1tm1Mom Il2rgtm1Wjl/SzJ) mice. All experiments were conducted according to the guidelines established by the Canadian Council on Animal Care and approved by Animal Ethics Committee of the University of British Columbia. The mice were subcutaneously inoculated with 7.5 × 10^6 HEK293T:hFAP cells in the left dorsal flank. When the tumors grew to 6–8 mm in diameter, the mice were used for PET/CT imaging and biodistribution studies.
PET/CT imaging experiments were carried out using a Siemens Inveon micro PET/CT scanner (Knoxville, TN, USA). Tumor-bearing mice were injected with ~4 to 6 MBq (0.02–0.13 nmol) of ^68Ga-labeled tracer through a lateral caudal tail vein under 2.5% isoflurane in oxygen anesthesia, followed by recovery and free roaming in their cage during the uptake period. A 10 min localization CT scan was acquired using 3 overlapping positions to cover each entire mouse. A CT scan was used for attenuation and scatter correction, and anatomical localization. A list mode acquisition was then performed for 15 min at 1 h pi with each mouse under isoflurane sedation. The images were reconstructed using 3D OSEM/MAP iterative methods.
(§2) For blocking studies, HEK293T:hFAP tumor-bearing mice were co-injected with [^68Ga]Ga-SB03045 and excess nonradioactive Ga-FAPI-04 (0.5 mg/mouse) as a competitor. Imaging and biodistribution were performed at 1 h pi, similar to the process for the unblocked mice.

Series [5] can be described thus: LogD7.4 measurement (n-octanol / phosphate buffer pH 7.4). Type of series: physicochemical. The conditions noted are these: n-octanol / 0.1 M phosphate buffer pH 7.4, n = 3. The protocol: Briefly, ^68Ga-labeled tracers (1.11–1.48 MBq) were aliquoted into vials containing 3 mL of n-octanol and 3 mL of 0.1 M phosphate buffer (pH 7.4) in triplicate. Each vial was then vortexed (1 min) and centrifuged (5000 RPM, 10 min). The n-octanol and aqueous layers were sampled (1 mL) and counted using an automated gamma counter and the LogD7.4 value was calculated using the following equation: LogD7.4=log10counts in n-octanol phase/counts in buffer phase

In series [6] the test system is HEK293T:hFAP tumor-bearing mice. Kind of series: Ex vivo biodistribution in HEK293T:hFAP tumor xenograft mouse model. The protocol:
as §1
For biodistribution studies, the mice were injected with ~1–2 MBq (0.01–0.04 nmol) of the ^68Ga-labeled tracer, using the exact procedures described above. At 1 h post injection, the mice were euthanized by CO2 inhalation. Blood was withdrawn by cardiac puncture and organs/tissues of interest were collected, weighed, and counted using a Perkin Elmer (Waltham, MA, USA) Wizard2 2480 automatic gamma counter. The percent injected dose per gram of tissues (%ID/g) for different tracers was calculated.
as §2

Setting [7] is: 0.5 mg/mouse natGa-FAPI-04, 1 h pi.
Setting [8] is: HEK293T:hFAP tumor-bearing mice, 1 h pi, blocked: co-injected with natGa-FAPI-04 (0.5 mg/mouse).
Where [9] appears, read: HEK293T:hFAP tumor-bearing mice, 1 h pi, unblocked.

Like-named read-outs stand apart in the source and are kept apart here.

For the compound `N#CC1CCCN1C(=O)CNC(=O)c1ccnc2ccccc12` (centres unmarked) [unsubstituted analog], the values for the IC50 in series [1] and in series [2] were […] and […], respectively.
Take `N#C[C@@H]1C[C@H](F)CN1C(=O)CNC(=O)c1ccnc2ccc(OCCCN3CCN(C(=O)CN4CCN5CCN(CC(=O)O)CCN(CC4)CC(=O)[O][Ga+][O]C(=O)C5)CC3)cc12` [^natGa-SB03045]: the IC50 in series [3] was 1.59 ± 0.45 nM.
`N#C[C@@H]1C[C@H](F)CN1C(=O)CNC(=O)c1ccnc2ccc(OCCCN3CCN(C(=O)CN4CCN5CCN(CC(=O)O)CCN(CC4)CC(=O)[O][68Ga+][O]C(=O)C5)CC3)cc12` [[^68Ga]Ga-SB03045]: in series [4], the “Visualization of tumor xenografts in PET/CT images” value was “clearly visualized” and the Excretion pathway entry is listed as “excreted mainly via the renal pathway”. Further, the “Tumor uptake in PET/CT on co-injection with natGa-FAPI-04” value in series [4] (blocked, 0.5 mg/mouse natGa-FAPI-04, 1 h pi) is recorded as “reduced the tumor uptake to almost background level”. Also, in series [5], the LogD7.4 is on record as −2.81 ± 0.05. In addition, in series [6] (setting [7]), the “Reduction in bone uptake by co-injection of excess natGa-FAPI-04” value is listed as ~ 97% and the “Reduction of average tumor uptake by co-injection of natGa-FAPI-04” value was ~ 96%. Also, in series [6] (setting [8]), the “Adrenal Glands uptake” value amounted to 0.14 ± 0.08 %ID/g, the Blood uptake was 0.19 ± 0.12 %ID/g, the Bone uptake came out at 0.09 ± 0.05 %ID/g and the Brain uptake was 0.01 ± 0.01 %ID/g. In series [6] (setting [8]), this compound had a Fat uptake of 0.04 ± 0.02 %ID/g, a Heart uptake of 0.05 ± 0.03 %ID/g, a Kidneys uptake of 1.03 ± 0.43 %ID/g and a Liver uptake of 0.13 ± 0.04 %ID/g. In series [6] (setting [8]), the Lungs uptake is given as 0.15 ± 0.09 %ID/g, the Muscle uptake is 0.05 ± 0.03 %ID/g, the Pancreas uptake is given as 0.04 ± 0.03 %ID/g and the “Small Intestines uptake” value stood at 0.12 ± 0.06 %ID/g. Also, in series [6] (setting [8]), the Spleen uptake was found to be 0.10 ± 0.05 %ID/g, the Stomach uptake was found to be 0.07 ± 0.06 %ID/g, the Testes uptake is reported as 0.06 ± 0.03 %ID/g and the Tumor uptake is given as 0.51 %ID/g. Also, in series [6] (setting [8]), the Tumor/Blood uptake ratio is 3.06 ± 1.01, the Tumor/Bone uptake ratio was found to be 6.67 ± 2.72, the Tumor/Kidney uptake ratio worked out at 0.50 ± 0.01 and the Tumor/Muscle uptake ratio amounted to 12.4 ± 5.48. In addition, in series [6] (setting [9]), the “Adrenal Glands uptake” value amounted to 0.49 ± 0.47 %ID/g, the Blood uptake worked out at 1.31 ± 0.43 %ID/g, the Bone uptake amounted to 3.48 ± 1.02 %ID/g and the Brain uptake is 0.05 ± 0.01 %ID/g. In addition, in series [6] (setting [9]), the Fat uptake amounted to 0.14 ± 0.08 %ID/g, the Heart uptake came to 0.41 ± 0.15 %ID/g, the Kidneys uptake was determined as 2.23 ± 0.41 %ID/g and the Liver uptake is reported as 0.47 ± 0.10 %ID/g. Moreover, in series [6] (setting [9]), the Lungs uptake was found to be 0.69 ± 0.20 %ID/g, the Muscle uptake was found to be 0.83 ± 0.42 %ID/g, the Pancreas uptake worked out at 0.52 ± 0.22 %ID/g and the “Small Intestines uptake” value is 0.40 ± 0.10 %ID/g. Also, in series [6] (setting [9]), the Spleen uptake stood at 0.49 ± 0.19 %ID/g, the Stomach uptake turned out to be 0.31 ± 0.04 %ID/g, the Testes uptake was 0.26 ± 0.08 %ID/g and the Tumor uptake is recorded as 11.8 ± 2.35 %ID/g. Also, in series [6] (setting [9]), the Tumor/Blood uptake ratio is 9.89 ± 3.80, the Tumor/Bone uptake ratio is recorded as 3.58 ± 1.07, the Tumor/Kidney uptake ratio is recorded as 5.41 ± 1.32 and the Tumor/Muscle uptake ratio stood at 17.2 ± 8.68.
On to `N#CC1CC(F)CN1C(=O)CNC(=O)c1ccnc2ccccc12` [(4S)-fluoropyrrolidine], for which, in series [2], the IC50 is 3.3 nM and the “Fold higher FAP affinity than the unsubstituted analog” value is […].
As to `N#C[C@@H]1CSCN1C(=O)CNC(=O)c1ccnc2ccc(OCCCN3CCN(C(=O)CN4CCN5CCN(CC(=O)O)CCN(CC4)CC(=O)[O][68Ga+][O]C(=O)C5)CC3)cc12` [[^68Ga]Ga-SB03058], in series [4], the “Visualization of tumor xenografts in PET/CT images” value was “clearly visualized” and the Excretion pathway entry was “excreted mainly via the renal pathway”. The same compound came in with a LogD7.4 in series [5] of −2.49 ± 0.28. In series [6] (HEK293T:hFAP tumor-bearing mice, 1 h pi), the “Fold lower tumor uptake than [68Ga]Ga-FAPI-04” value is recorded as ~ 1.5 fold. For the same compound, in series [6] (setting [9]), the “Adrenal Glands uptake” value is 2.50 ± 1.58 %ID/g, the Blood uptake was 2.07 ± 0.21 %ID/g, the Bone uptake was 4.73 ± 0.52 %ID/g and the Brain uptake is recorded as 0.11 ± 0.08 %ID/g. Also, in series [6] (setting [9]), the Fat uptake came out at 0.40 ± 0.23 %ID/g, the Heart uptake is 0.59 ± 0.09 %ID/g, the Kidneys uptake came out at 2.64 ± 0.28 %ID/g and the Liver uptake was found to be 0.62 ± 0.19 %ID/g. In series [6] (setting [9]), the Lungs uptake amounted to 1.25 ± 0.11 %ID/g, the Muscle uptake came out at 1.42 ± 0.31 %ID/g, the Pancreas uptake is 0.86 ± 0.16 %ID/g and the “Small Intestines uptake” value stood at 0.61 ± 0.05 %ID/g. In addition, in series [6] (setting [9]), the Spleen uptake is on record as 1.48 ± 1.01 %ID/g, the Stomach uptake amounted to 0.26 ± 0.07 %ID/g, the Testes uptake is reported as 0.48 ± 0.10 %ID/g and the Tumor uptake was found to be 7.93 ± 1.33 %ID/g. For the same compound, in series [6] (setting [9]), the Tumor/Blood uptake ratio was 3.82 ± 0.25, the Tumor/Bone uptake ratio was 1.67 ± 0.13, the Tumor/Kidney uptake ratio was 3.01 ± 0.32 and the Tumor/Muscle uptake ratio turned out to be 5.64 ± 0.62.
Turning to `N#C[C@@H]1CSCN1C(=O)CNC(=O)c1ccnc2ccc(OCCCN3CCN(C(=O)CN4CCN5CCN(CC(=O)O)CCN(CC4)CC(=O)[O][Ga+][O]C(=O)C5)CC3)cc12` [^natGa-SB03058], in series [3], the “FAP-binding potency, fold higher than the di-fluorinated analog (natGa-FAPI-04)” value was more than 5 fold and the IC50 amounted to 0.68 ± 0.09 nM.

The values above are taken from article PMC10145249, “Synthesis and Evaluation of ^68Ga-Labeled (2S,4S)-4-Fluoropyrrolidine-2-Carbonitrile and (4R)-Thiazolidine-4-Carbonitrile Derivatives as Novel Fibroblast Activation Protein-Targeted PET Tracers for Cancer Imaging” (Molecules, 2023).
